Experimental data as given in US20240287054A1, “COMPOUNDS THAT BIND NON-CANONICAL G-QUADRUPLEX STRUCTURES AND METHODS OF MAKING AND USING THE SAME” (The U.S.A., as Represented by the Secretary, Department of …, priority 2021, published 2024).

How the values were obtained:
MYCN hairpin-G4 DNA = assay: FIA using compound fluorescence (Ex 340/Em 500 nm), titration with unlabeled MYCN G4 DNA; format: binding, human; conditions: 100 nM compound titrated with folded unlabeled MYCN G4
Outline: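 Compound at 100 nM final (5% DMSO) was titrated with serially diluted, pre-annealed unlabeled MYCN G4 DNA and incubated 30 min at room temperature. Intrinsic compound fluorescence (Ex 340/Em 500 nm) was normalised, and affinity was fitted to a one-site total model.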

[1] = tested on: ~19,000 different G4 sequences, G4 and non-G4 controls; assay: High-density DNA oligo microarray (~19,000 G4 sequences) selectivity profiling; format: binding; conditions: 500 nM compound
Description: To further characterize the binding selectivity of compound B33, high-density and large-scale DNA microarrays that contained ˜19,000 different G4 sequences were fabricated and used. In this microarray, 340 reported G4s (G-rich sequences) as well as 280 non-G4s (C-rich sequences) were designed as positive and negative controls. Additionally, over 17,000 canonical G4 oligos with short loops (1˜7 nt) were also designed and synthesized by varying the loop sequences to meet the diversity of G4 structure. After folding the surface-grafted DNA oligos in high concentration of KCl buffer, TO and compound B33 solutions (500 nM) were incubated with the microarray, respectively. Then the slides were thoroughly washed, dried, and imaged by a fluorescent scanner using green channel. […] By quantifying the fluorescence intensity of each spot, the bindings of TO and compound B33 were further investigated. The kernel density estimate (KDE) plot and violin plot represented the distribution of the binding signals throughout the whole microarray. […] Compound B33 spectrum spanned a much wider range than that of TO. In the violin plot (FIG. 37C), the mean SNR value of TO group was 12, much higher than that of the compound B33 group. […] Furthermore, the selectivity of the two compounds were quantitatively profiled by using Gini coefficient. Gini coefficient, initially used as an economic concept, has been applied in profiling the selectivity/promiscuity of kinase inhibitors as well as RNA binders. A higher Gini value represents a better selectivity of a compound (Gini coefficient>0.75 is considered an excellent selectivity). The Gini coefficient based on the SNRs in the microarray.

HIV HP-G4 = assay: FIA binding test with HIV HP-G4 ((3+1) hybrid structure)
Protocol: In this study, FIA was used for validating the bindings between certain bivalent and MYCN G4 oligos. To measure the binding affinity, a solution of each compound was prepared in triplicate in a 96 well-plate (Costar, black side clear bottom), resulting in a final concentration of 100 nM (5% final DMSO in the working solution). Unlabeled MYCN G4 DNA was folded based on the above-mentioned annealing method, then added into the well plate resulting in different concentrations by a seral dilution. The plate was incubated at room temperature for 30 min, followed by centrifuging at 500 rpm for 2 minutes. The fluorescence intensity was then quantitatively recorded by a Synergy Mx microplate reader (BioTek) at Ex 340 nm/Em 500 nm. The fluorescence intensities were then normalized, and the binding affinity was calculated by fitting the curve using one-site total model in GraphPad Prism 8.3.1 software.
In addition to the DMS-footprinting study, the bivalent binding mode of compound B33 toward MYCN hairpin-G4 was also investigated by comparing HP-G4s with different folding types. Four reported HP-G4s with parallel structure (BCL2), (3+1) hybrid structure (HIV and PIM1-form1), and (2+2) chair-type structure (PIM1-form2) were examined by FIA binding test using compound B33 (FIGS. 41A, 41B, 42A, 42B, 43A, 43B, 44A, and 44B). […]

N-Myc protein = assay: Western blot of N-Myc protein in NBEB cells; format: cell-based; conditions: 48 h, Western blotting
Protocol: To examine the effects of G4-binding compounds on NBEB cells, live-cell imaging was performed using an Incucyte interface (described below). NBEB (5K/well), cells were seeded into 96-well plates in triplicate, treated with compound MY-8 at various concentrations (0-45 μM), and cultured until control wells reached confluence. For RT-qPCR and western blotting, NBEB (300K) cells were treated with MY-8 in 6-well dish for 48 h. To examine the time-dependent decrease in MYCNOs expression, cells were treated with 22.5 μM and 45 μM MY-8 and analyzed at various times (0, 4, 24, 48, 72 and 96 h). To validate cell viability, a Trypan Blue exclusion test was performed following treatment at 48 h and 96 h post treatment and the proportion of live versus dead cells was calculated using a hemocytometer.
Protein assay. Forty-eight hours post-MY-8 treatment in 6-well plates, single copy MYCN cells were lysed directly in the plate with Radioimmunoprecipitation assay buffer (Beyotime, China), pelleted, and chilled at −80° C. […] Total protein concentrations were determined using a Bradford Assay using the Bradford reagent (Beyotime, China). […] Chemiluminescent signal was detected using Clarity™ Western ECL Substrate (Bio-Rad, USA) or Supersignal™ West Femto Maximum Sensitivity Substrate (ThermoFisher Scientific, USA) with a ChemiDoc gel imaging system (Bio-Rad, USA).

SMILES | Kd (MYCN hairpin-G4 DNA) [nM] | binding to the 620 G4 and non-G4 controls ([1]; 340 G4s and 280 non-G4s) | Gini coefficient ([1]; based on SNRs in the microarray) | Kd (HIV HP-G4) [nM] | levels of N-Myc protein (N-Myc protein)
COc1ccc(-c2noc(-c3ccc(NCCCNc4c5ccc(Cl)cc5nc5ccc(OC)cc45)nn3)n2)cc1 [B33, N^1-(6-chloro-2-methoxyacridin-9-yl)-N^3-(6-(3-(4-methoxyphenyl)-1,2,4-oxadiazol-5-yl)pyridazin-3-yl)propane-1,3-diamine] | 66 ± 7 | some binding to G4s while there was no binding observed in non-G4 group | 0.628 | 151 ± 26 | 
COc1ccc(-c2noc(-c3ccc(NCCCN4CCCCCC4)nn3)n2)cc1 [MY-8, N-(3-(azepan-1-yl)propyl)-6-(3-(4-methoxyphenyl)-1,2,4-oxadiazol-5-yl)pyridazin-3-amine] |  |  |  |  | decreased upon treatment with MY-8 in a dose-dependent fashion
